Reference: patent US20080009418A1, “Selective Inhibitors” (Alchemia LTD., priority 2004, published 2008)

Key:
Human Melanocortin (MC4) = molecular target: T1, Human Melanocortin (MC4) (Homo sapiens, UniProt P32245); test: Radioligand binding, human melanocortin MC4 membranes, FlashPlate, [125I]-NDP-αMSH; conditions: compound at 10 μM, [125I]-NDP-αMSH
T1 construct: purchased Perkin Elmer Biosignal
Outline: (§1)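 Cloned human receptor membranes were coated onto FlashPlate wells and incubated with radioligand and compound (added from a 0.5 mM DMSO daughter plate) for 1 hour at room temperature in the dark. Scintillation counting gave percent inhibition, with DMSO defining total and reference ligand defining non-specific binding.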

Human Melanocortin (MC3) = molecular target: T2, Human Melanocortin (MC3) (Homo sapiens, UniProt P41968); test: Radioligand binding, human melanocortin MC3 membranes, FlashPlate, [125I]-NDP-αMSH; conditions: compound at 10 μM, [125I]-NDP-αMSH
T2 construct: purchased Perkin Elmer Biosignal
T2 sequence (P41968 whole entry): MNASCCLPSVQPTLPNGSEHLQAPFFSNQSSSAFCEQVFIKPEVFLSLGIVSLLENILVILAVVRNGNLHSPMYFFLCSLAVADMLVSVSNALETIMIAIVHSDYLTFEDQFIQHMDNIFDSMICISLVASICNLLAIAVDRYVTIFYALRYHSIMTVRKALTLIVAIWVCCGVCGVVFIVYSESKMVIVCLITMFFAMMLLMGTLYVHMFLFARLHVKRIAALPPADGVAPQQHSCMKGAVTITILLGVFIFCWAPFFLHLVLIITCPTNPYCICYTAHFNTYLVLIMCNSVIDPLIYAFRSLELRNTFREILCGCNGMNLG
Outline: as §1

Human neurokinin (NK1) = molecular target: T3, Human neurokinin (NK1) (Homo sapiens, UniProt P25103); test: Radioligand binding, human neurokinin NK1 membranes, filtration, [125I]-Substance P; conditions: compound at 10 μM, [125I]-Substance P
T3 construct: purchased Perkin Elmer Biosignal
T3 sequence (P25103 whole entry): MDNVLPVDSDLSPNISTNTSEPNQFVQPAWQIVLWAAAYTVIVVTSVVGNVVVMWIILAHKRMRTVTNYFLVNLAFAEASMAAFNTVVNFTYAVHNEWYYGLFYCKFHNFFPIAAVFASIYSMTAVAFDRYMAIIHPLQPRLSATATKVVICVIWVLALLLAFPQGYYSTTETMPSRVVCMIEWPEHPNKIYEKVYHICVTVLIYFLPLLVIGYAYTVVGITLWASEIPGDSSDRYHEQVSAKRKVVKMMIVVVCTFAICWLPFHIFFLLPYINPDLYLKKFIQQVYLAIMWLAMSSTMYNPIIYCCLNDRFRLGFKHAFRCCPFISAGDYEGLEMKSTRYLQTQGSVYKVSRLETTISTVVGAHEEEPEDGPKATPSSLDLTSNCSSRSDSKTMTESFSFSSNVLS
Outline: (§2)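 Membranes from cloned human receptors were incubated with compound and radioligand for 1 hour at room temperature. Bound ligand was collected on 0.3% PEI-soaked filters, washed with cold 50 mM Tris-HCl pH 7.4, and counted by scintillation. Percent inhibition was computed against DMSO totals and reference-ligand nonspecific wells.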

Human μ-opioid (MOP) = molecular target: T4, Human μ-opioid (MOP) (Homo sapiens, UniProt P35372); test: Radioligand binding, human μ-opioid (MOP) membranes, FlashPlate, [3H]-Naloxone; conditions: compound at 10 μM, [3H]-Naloxone
T4 construct: purchased Perkin Elmer Biosignal
T4 sequence (P35372 whole entry): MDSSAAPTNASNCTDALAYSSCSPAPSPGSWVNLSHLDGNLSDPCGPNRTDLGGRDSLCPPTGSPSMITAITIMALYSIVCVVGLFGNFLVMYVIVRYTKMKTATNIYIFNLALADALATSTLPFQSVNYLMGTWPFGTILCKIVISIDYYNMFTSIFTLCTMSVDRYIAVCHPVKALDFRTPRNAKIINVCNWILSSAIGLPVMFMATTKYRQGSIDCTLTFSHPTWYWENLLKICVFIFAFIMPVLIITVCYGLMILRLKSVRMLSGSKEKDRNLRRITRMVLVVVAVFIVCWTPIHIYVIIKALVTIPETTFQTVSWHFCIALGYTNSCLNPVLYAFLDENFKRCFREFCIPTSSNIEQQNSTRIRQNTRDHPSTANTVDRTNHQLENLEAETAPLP
Outline: as §1

[1] = molecular target: T5, Human melanin-concentrating hormone (MCH1) (Homo sapiens, UniProt Q99705); test: Radioligand binding, human melanin-concentrating hormone MCH1 membranes, FlashPlate, [125I]-S36057; conditions: compound at 10 μM; for A6: inhibition of radioligand binding, human melanin-concentrating hormone (MCH1): [125I]-S36057
T5 construct: purchased Perkin Elmer Biosignal
T5 sequence (Q99705 whole entry): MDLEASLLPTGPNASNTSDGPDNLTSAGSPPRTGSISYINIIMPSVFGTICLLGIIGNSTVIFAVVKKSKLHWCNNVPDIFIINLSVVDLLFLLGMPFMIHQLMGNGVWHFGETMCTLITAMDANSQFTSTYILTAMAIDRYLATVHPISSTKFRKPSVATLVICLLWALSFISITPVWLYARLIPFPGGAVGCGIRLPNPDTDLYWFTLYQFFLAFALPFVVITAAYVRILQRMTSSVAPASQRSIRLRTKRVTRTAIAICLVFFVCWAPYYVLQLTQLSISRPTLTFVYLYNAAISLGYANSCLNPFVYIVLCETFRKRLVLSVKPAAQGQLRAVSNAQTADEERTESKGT
Outline: as §1

Human δ-opioid (DOP) = molecular target: T6, Human δ-opioid (DOP) (Homo sapiens, UniProt P41143); test: Radioligand binding, human δ-opioid (DOP) membranes, FlashPlate, [3H]-Bremazocine; conditions: compound at 10 μM, [3H]-Bremazocine
T6 construct: purchased Perkin Elmer Biosignal
T6 sequence (P41143 whole entry): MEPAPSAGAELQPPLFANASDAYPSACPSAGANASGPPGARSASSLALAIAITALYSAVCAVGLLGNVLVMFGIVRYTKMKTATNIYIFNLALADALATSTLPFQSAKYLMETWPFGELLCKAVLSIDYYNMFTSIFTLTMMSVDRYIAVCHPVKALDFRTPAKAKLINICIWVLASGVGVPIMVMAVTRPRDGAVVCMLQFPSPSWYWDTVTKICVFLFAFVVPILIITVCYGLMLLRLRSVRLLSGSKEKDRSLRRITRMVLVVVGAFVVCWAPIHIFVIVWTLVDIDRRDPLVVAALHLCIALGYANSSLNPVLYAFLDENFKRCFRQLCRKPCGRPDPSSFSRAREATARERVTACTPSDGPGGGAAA
Outline: as §1

Human melanocortin (MC5) = molecular target: T7, Human melanocortin (MC5) (Homo sapiens, UniProt P33032); test: Radioligand binding, human melanocortin MC5 membranes, FlashPlate, [125I]-NDP-αMSH; conditions: compound at 10 μM, [125I]-NDP-αMSH
T7 construct: purchased Perkin Elmer Biosignal
T7 sequence (P33032 whole entry): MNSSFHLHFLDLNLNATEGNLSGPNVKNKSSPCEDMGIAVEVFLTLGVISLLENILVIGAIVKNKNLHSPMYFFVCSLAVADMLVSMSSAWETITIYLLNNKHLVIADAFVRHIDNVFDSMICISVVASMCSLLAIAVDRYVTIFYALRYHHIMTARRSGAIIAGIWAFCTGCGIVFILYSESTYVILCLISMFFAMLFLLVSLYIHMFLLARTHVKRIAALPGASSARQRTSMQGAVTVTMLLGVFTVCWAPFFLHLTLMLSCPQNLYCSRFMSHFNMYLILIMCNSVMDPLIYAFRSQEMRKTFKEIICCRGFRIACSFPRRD
Outline: as §1

[2] = molecular target: T8, Human neuropeptide Y (NPY-Y1) (Homo sapiens, UniProt P25929); test: Radioligand binding, human neuropeptide Y NPY-Y1 membranes, FlashPlate, [125I]-PYY; conditions: compound at 10 μM, [125I]-PYY
T8 construct: purchased Perkin Elmer Biosignal
T8 sequence (P25929 1-384): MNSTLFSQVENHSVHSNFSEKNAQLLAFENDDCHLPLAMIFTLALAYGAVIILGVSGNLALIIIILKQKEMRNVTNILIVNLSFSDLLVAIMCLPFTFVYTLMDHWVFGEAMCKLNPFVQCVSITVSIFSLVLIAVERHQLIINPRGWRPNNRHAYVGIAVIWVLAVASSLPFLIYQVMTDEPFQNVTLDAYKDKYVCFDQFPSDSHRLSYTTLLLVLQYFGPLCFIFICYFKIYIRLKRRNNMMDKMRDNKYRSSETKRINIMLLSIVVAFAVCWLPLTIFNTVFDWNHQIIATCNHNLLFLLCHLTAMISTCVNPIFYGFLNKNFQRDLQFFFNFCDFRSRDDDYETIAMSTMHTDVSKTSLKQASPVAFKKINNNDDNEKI
Outline: as §1

Human opioid (ORL1) = molecular target: T9, Human opioid (ORL1) (Homo sapiens, UniProt P41146); test: Radioligand binding, human opioid ORL1 membranes, FlashPlate, [125I]-Nociceptin; conditions: compound at 10 μM, [125I]-Nociceptin
T9 construct: purchased Perkin Elmer Biosignal
T9 sequence (P41146 whole entry): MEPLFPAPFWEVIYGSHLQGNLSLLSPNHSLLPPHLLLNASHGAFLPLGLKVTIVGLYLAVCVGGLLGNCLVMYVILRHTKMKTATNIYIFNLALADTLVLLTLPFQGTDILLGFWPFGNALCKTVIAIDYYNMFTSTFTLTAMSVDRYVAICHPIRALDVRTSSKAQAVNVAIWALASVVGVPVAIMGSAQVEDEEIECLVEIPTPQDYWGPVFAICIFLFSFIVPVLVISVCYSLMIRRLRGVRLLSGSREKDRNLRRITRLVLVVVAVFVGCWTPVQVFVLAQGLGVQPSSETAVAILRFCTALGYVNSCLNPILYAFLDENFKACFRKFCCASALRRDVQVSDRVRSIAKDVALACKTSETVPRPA
Outline: as §1

Human κ-Opioid (KOP) = molecular target: T10, Human κ-Opioid (KOP) (Homo sapiens, UniProt P41145); test: Radioligand binding, human κ-opioid (KOP) membranes, filtration, [3H]-Diprenorphine; conditions: compound at 10 μM, [3H]-Diprenorphine
T10 construct: purchased Perkin Elmer Biosignal
T10 sequence (P41145 whole entry): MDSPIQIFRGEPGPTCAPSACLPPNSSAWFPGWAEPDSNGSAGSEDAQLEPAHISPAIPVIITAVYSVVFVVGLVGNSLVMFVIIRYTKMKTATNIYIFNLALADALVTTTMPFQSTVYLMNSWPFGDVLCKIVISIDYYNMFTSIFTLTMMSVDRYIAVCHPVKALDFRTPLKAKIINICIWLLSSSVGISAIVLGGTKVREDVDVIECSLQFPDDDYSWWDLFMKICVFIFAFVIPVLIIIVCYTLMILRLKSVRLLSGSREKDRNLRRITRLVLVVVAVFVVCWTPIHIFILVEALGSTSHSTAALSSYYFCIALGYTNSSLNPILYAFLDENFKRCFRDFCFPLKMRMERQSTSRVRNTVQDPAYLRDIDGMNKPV
Outline: as §2

Mouse urotensin (mUR2) = molecular target: T11, Mouse urotensin (mUR2) (Mus musculus, UniProt Q8VIH9); test: Radioligand binding, mouse urotensin mUR2 membranes, FlashPlate, [125I]-Urotensin II; conditions: compound at 10 μM, [125I]-Urotensin II
T11 construct: purchased Perkin Elmer Biosignal
T11 sequence (Q8VIH9 1-385): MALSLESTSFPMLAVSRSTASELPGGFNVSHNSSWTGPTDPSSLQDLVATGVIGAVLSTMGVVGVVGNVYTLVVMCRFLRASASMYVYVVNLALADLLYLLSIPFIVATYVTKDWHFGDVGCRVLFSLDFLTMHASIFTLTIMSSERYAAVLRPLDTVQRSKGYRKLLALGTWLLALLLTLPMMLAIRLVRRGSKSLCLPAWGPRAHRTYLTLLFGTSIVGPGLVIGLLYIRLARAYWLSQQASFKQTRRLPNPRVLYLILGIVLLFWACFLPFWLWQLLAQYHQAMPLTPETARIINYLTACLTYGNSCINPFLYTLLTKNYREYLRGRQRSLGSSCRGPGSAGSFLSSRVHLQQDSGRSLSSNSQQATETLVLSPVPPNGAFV
Outline: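 Cloned mouse urotensin (mUR2) receptor membranes from Perkin Elmer Biosignal were immobilized in FlashPlate microplates using a proprietary coating. Each well got 19.5 μl buffer, then 0.5 μl of DMSO, reference ligand, or compound. Adding 5 μl of [125I]-Urotensin II, diluted to 5× final concentration in binding buffer, started binding. Plates were sealed with TopSeal-A and incubated 1 hour at room temperature in the dark. Wells were counted for 30 seconds each on a TopCount after a 60-second delay, and percentage inhibition was calculated.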

T1 sequence (P32245 whole entry): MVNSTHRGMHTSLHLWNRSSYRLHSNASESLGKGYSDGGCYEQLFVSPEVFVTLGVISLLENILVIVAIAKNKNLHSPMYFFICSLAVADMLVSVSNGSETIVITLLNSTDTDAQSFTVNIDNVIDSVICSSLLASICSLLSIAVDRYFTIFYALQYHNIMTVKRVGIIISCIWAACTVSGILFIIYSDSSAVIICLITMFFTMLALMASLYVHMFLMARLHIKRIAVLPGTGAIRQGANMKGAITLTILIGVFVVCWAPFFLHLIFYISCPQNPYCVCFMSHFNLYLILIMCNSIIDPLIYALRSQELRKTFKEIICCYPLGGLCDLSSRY

Row | SMILES | A4: inhibition of radioligand binding, human melanocortin (MC4) (Human Melanocortin (MC4)) | A3: inhibition of radioligand binding, human melanocortin (MC3) (Human Melanocortin (MC3)) | A8: inhibition of radioligand binding, human neurokinin (NK1) (Human neurokinin (NK1)) | A7: inhibition of radioligand binding, human μ-opioid (MOP) (Human μ-opioid (MOP)) | A6: inhibition of radioligand binding, human melanin-concentrating hormone (MCH1) [1] | A1: inhibition of radioligand binding, human δ-opioid (DOP) (Human δ-opioid (DOP)) | A5: inhibition of radioligand binding, human melanocortin (MC5) (Human melanocortin (MC5)) | A9: inhibition of radioligand binding, human neuropeptide Y (NPY-Y1) [2] | A10: inhibition of radioligand binding, human opioid (ORL1) (Human opioid (ORL1)) | A2: inhibition of radioligand binding, human κ-opioid (KOP) (Human κ-Opioid (KOP)) | A11: inhibition of radioligand binding, mouse urotensin (mUR2) (Mouse urotensin (mUR2)) | also measured
1 | CSC1OC(COCc2ccccc2)C(O)C(OCc2cccc(N)c2)C1NC(=O)C=Cc1ccccc1 (stereo not shown) [compound 324] | − (“−” indicates less than 50% inhibition at 10 μM) | − (“−” indicates less than 50% inhibition at 10 μM) | + (“+” indicates greater than 50% inhibition at 10 μM) | − (“−” indicates less than 50% inhibition at 10 μM) | − (“−” indicates less than 50% inhibition at 10 μM) | − (“−” indicates less than 50% inhibition at 10 μM) | − (“−” indicates less than 50% inhibition at 10 μM) | − (“−” indicates less than 50% inhibition at 10 μM) | − (“−” indicates less than 50% inhibition at 10 μM) | − (“−” indicates less than 50% inhibition at 10 μM) | − (“−” indicates less than 50% inhibition at 10 μM) | 
2 | CO[C@H]1[C@H](O)[C@@H](COCc2ccc3ccccc3c2)OC(OCc2ccc(Cl)cc2)[C@@H]1NC(=O)C1CCCN1 (stereo partly shown) [compound 352] | − (“−” indicates less than 50% inhibition at 10 μM) | − (“−” indicates less than 50% inhibition at 10 μM) | + (“+” indicates greater than 50% inhibition at 10 μM) | − (“−” indicates less than 50% inhibition at 10 μM) | − (“−” indicates less than 50% inhibition at 10 μM) | − (“−” indicates less than 50% inhibition at 10 μM) | − (“−” indicates less than 50% inhibition at 10 μM) | − (“−” indicates less than 50% inhibition at 10 μM) | − (“−” indicates less than 50% inhibition at 10 μM) | − (“−” indicates less than 50% inhibition at 10 μM) | − (“−” indicates less than 50% inhibition at 10 μM) | 
3 | CSC1OC(COCc2ccc3ccccc3c2)C(O)C(OCc2ccccc2)C1NC(=O)CCN (stereo not shown) [compound 261] |  |  |  |  |  |  |  |  |  |  |  | A4: inhibition of radioligand binding (Human Melanocortin (MC4); FlashPlate): − (“−” indicates less than 50% inhibition at 10 μM); A3: inhibition of radioligand binding (Human Melanocortin (MC3); FlashPlate): − (“−” indicates less than 50% inhibition at 10 μM); A8: inhibition of radioligand binding (Human neurokinin (NK1); filtration): − (“−” indicates less than 50% inhibition at 10 μM); A7: inhibition of radioligand binding (Human μ-opioid (MOP); FlashPlate): − (“−” indicates less than 50% inhibition at 10 μM); A6: inhibition of radioligand binding ([1]; [125I]-S36057, FlashPlate): − (“−” indicates less than 50% inhibition at 10 μM); A1: inhibition of radioligand binding (Human δ-opioid (DOP); FlashPlate): − (“−” indicates less than 50% inhibition at 10 μM); A5: inhibition of radioligand binding (Human melanocortin (MC5); FlashPlate): + (“+” indicates greater than 50% inhibition at 10 μM); A9: inhibition of radioligand binding ([2]; FlashPlate): − (“−” indicates less than 50% inhibition at 10 μM); A10: inhibition of radioligand binding (Human opioid (ORL1); FlashPlate): − (“−” indicates less than 50% inhibition at 10 μM); A2: inhibition of radioligand binding (Human κ-Opioid (KOP); filtration): − (“−” indicates less than 50% inhibition at 10 μM); A11: inhibition of radioligand binding (Mouse urotensin (mUR2); FlashPlate): − (“−” indicates less than 50% inhibition at 10 μM)
4 | NCCC(=O)NC1C(OCc2ccc(Cl)cc2)OC(COCc2ccccc2)C(O)C1OCc1ccc2ccccc2c1 (single isomer, unassigned) [compound 479] |  | − (“−” indicates less than 50% inhibition at 10 μM) | + (“+” indicates greater than 50% inhibition at 10 μM) |  |  | − (“−” indicates less than 50% inhibition at 10 μM) |  | − (“−” indicates less than 50% inhibition at 10 μM) | − (“−” indicates less than 50% inhibition at 10 μM) | − (“−” indicates less than 50% inhibition at 10 μM) | − (“−” indicates less than 50% inhibition at 10 μM) | A4: inhibition of radioligand binding, human melanocortin (MC4) (Human Melanocortin (MC4); 10 µM): − (“−” indicates less than 50% inhibition at 10 μM); A7: inhibition of radioligand binding, human μ-opioid (MOP) (Human μ-opioid (MOP); 10 µM): − (“−” indicates less than 50% inhibition at 10 μM); A6: inhibition of radioligand binding, human melanin-concentrating hormone (MCH1) ([1]; 10 µM): − (“−” indicates less than 50% inhibition at 10 μM); A5: inhibition of radioligand binding, human melanocortin (MC5) (Human melanocortin (MC5); 10 µM): − (“−” indicates less than 50% inhibition at 10 μM)
5 | CSC1O[C@H](COCc2ccc(Cl)cc2)[C@@H](O)[C@@H](OCc2ccc(-c3ccccc3)cc2)[C@H]1NC(=O)CN (stereo partly shown) [compound 288] | − (“−” indicates less than 50% inhibition at 10 μM) | − (“−” indicates less than 50% inhibition at 10 μM) | + (“+” indicates greater than 50% inhibition at 10 μM) | − (“−” indicates less than 50% inhibition at 10 μM) | − (“−” indicates less than 50% inhibition at 10 μM) | − (“−” indicates less than 50% inhibition at 10 μM) | − (“−” indicates less than 50% inhibition at 10 μM) | − (“−” indicates less than 50% inhibition at 10 μM) | − (“−” indicates less than 50% inhibition at 10 μM) | − (“−” indicates less than 50% inhibition at 10 μM) | − (“−” indicates less than 50% inhibition at 10 μM) | 
